Values of other authors in patent US11166974B2, “Ophthalmic solution comprising Diquafosol” (Santen Pharmaceutical Co., Ltd., priority 2012, dated 2021).

Test system: corneal epithelium disorder of dry eye patients
Conditions: instillation of an ophthalmic solution; NPD 1

## O=c1ccn([C@@H]2O[C@H](COP(=O)([O-])OP(=O)([O-])OP(=O)([O-])OP(=O)([O-])OC[C@H]3O[C@@H](n4ccc(=O)[nH]c4=O)[C@H](O)[C@@H]3O)[C@@H](O)[C@H]2O)c(=O)[nH]1.[Na+].[Na+].[Na+].[Na+] [diquafosol tetrasodium salt]
  corneal epithelium disorder of dry eye patients: improved corneal epithelium disorder
